Test [1] relates to synthesis of LTB4 by rat glycogen-elicited polymorphonuclear leukocytes (PMN). As to the kind of experiment: Inhibition of LTB4 synthesis by rat glycogen-elicited polymorphonuclear leukocytes (PMN). The test is classed as cell-based, rat (female Wistar). The settings on record: Leukocyte, A23187-stimulated rat PMN.
For test [2], the system named is TPA-induced mouse ear edema. Kind of test: TPA-induced murine ear edema test. The settings on record: 1 mg/ear, 30 min after TPA, measured 4 h after TPA. The test is classed as in vivo, mouse (Swiss Webster).
In test [3] the test system is oxazolone-induced contact hypersensitivity in the mouse ear. As to the kind of experiment: Oxazolone-induced contact hypersensitivity in the mouse ear. The settings on record: dosed at 1 mg/ear. The test is classed as in vivo, mouse (Swiss Webster). The protocol: The assay of this Example measures the ability of the compounds in the scope of the invention to inhibit oxazolone-induced contact hypersensitivity in the mouse ear.
Female, Swiss Webster mice (8 weeks old) are placed into groups of 6 and the abdominal area of each is shaved. The mice are sensitized to oxazolone (4-ethoxymethylene-2-phenyl-oxazol-5-one) by applying 100 μl of a 2% solution in 95% alcohol directly onto the shaved abdomen using an automatic pipette and rubbing the residual oxazolone into the skin with a round wooden stick. Six days after sensitization each mouse is challenged by applying 20 μl of a 2% oxazolone solution in 95% alcohol to the right ear (10 μl on each side) and 20 μl of alcohol alone to the left ear. Compounds for topical applications are prepared in acetone and administered to the right ear 30 min after challenge or 30 min prior to and 5 h after challenge; acetone (vehicle) is applied to the left ear. Compounds for oral administration are suspended in 0.5 ml of 0.5% methyl cellulose and given ten min prior to challenge. Ear thickness of both ears is measured in mm×10^-2 at 24 and 48 h after challenge using an Oditest caliper. Edema is calculated by subtracting the left ear thickness from the right ear thickness. Drug effects are determined by calculating the percentage change from control for each time period.

For another test, the target named is T1, human platelet PLA2 (Homo sapiens, UniProt P14555).
T1 construct: The PLA2 enriched supernatant fluid is removed and the amount of protein is determined by the Lowry method; from tissue; host or cells: expired human platelets from the blood bank (acid extract, not purified)
T1 sequence (P14555 21-144): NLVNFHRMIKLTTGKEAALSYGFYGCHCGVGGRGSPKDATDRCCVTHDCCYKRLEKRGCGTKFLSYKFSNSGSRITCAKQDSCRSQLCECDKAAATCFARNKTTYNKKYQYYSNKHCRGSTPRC
As to the kind of experiment: Inhibition of cell free human platelet PLA2 (hydrolysis of [3H]-AA labelled E. coli phospholipids). The test is classed as biochemical. The note with it: 30 min. As for the experimental part: The ability of the compounds in the scope of the invention to inhibit the activity of cell free human platelet PLA2 enzyme is measured in the following in vitro assay.
E. coli, cultured to exponential growth, are sedimented for 15 minutes at 10,000 g and resuspended in sterile isotonic saline (1-3 ml). 10-25 μCi uniformly labeled [^3 H]-arachidonic acid (AA) is added to a sterile flask, evaporated by N2 and resolubilized with 0.3 ml 20% fatty acid-free bovine serum albumen (BSA). 75-100 ml of nutrient broth and 1 ml E. coli are then added to each flask and incubated for 2-3 hours at 37° C. [^3 H]-AA labelled E. coli are then sedimented, suspended in saline and added to fresh nutrient broth and incubated for 1.5 hours at 37° C. to complete [^3 H]-AA incorporation into the phospholipids. After overnight refrigeration of cultures, E. coli are again sedimented, suspended in saline and autoclaved for 15 minutes at 120° C. E. coli cultures are washed twice with saline (first wash contains 1 % BSA) and resuspended in saline. Non-labelled E. coli cultures are also prepared in the same manner. Cell number is determined by measuring the optical density at […] (3×10 cell/ml=1 O.D.). The amount of radioactivity associated with cells is determined by counting a defined volume of cell suspension. The specific activity is subsequently adjusted by adding non-labelled E. coli to yield 2-4×10 cpm per 1×10^10 E. coli.
Expired human platelets from the blood bank are centrifuged for 15 minutes at 200 g to obtain a platelet rich fraction and to remove the red blood cells. Platelets are sedimented for 15 minutes at 2500 g and the plasma is removed before adding cold 0.18N H2 SO4 (4 ml/unit). Platelets are homogenized, incubated for 1 hour at 4° C., homogenized again and centrifuged for 15 minutes at 10,000 g. The PLA2 enriched supernatant fluid is removed and the amount of protein is determined by the Lowry method. The preparation is divided into various portions and stored at -20° C.
The assay measures the hydrolysis of E. coli membrane phospholipids and the release of free [^3 H]-AA from the C-2 position of phospholipids by human platelet PLA2. To ice cold 15×100 mm test tubes, the following additions are made; 2.5×10^8 E. coli (equivalent to 5 nmol phospholipid), 5 mM Ca++, 100 mM Tris buffer (pH=7.4), 100 μg platelet extract (or an amount to produce 20-30% hydrolysis), drug or vehicle. Incubation are carried out at 37° C. in a shaking water bath for 30 minutes. The reaction is terminated by the addition of 2 volumes of tetrahydrofuran (THF) and the mixture is vortexed. Hydrolyzed [^3 H]-AA is separated from unhydrolyzed phospholipid by solid phase extraction using Bond elute NH2 columns (Analytichem Intermat.). Columns are conditioned with 0.5 ml THF followed by 0.5 ml THF:H2 O (2.0:0.1 ml v/v). Samples are loaded onto columns and hydrolyzed [^3 H]-AA is eluted with 1 ml THF:glacial acetic acid (98.0:2.0 ml v/v). The elutant is transferred to vials, 10 ml Optifluor is added and the radioactivity is determined by liquid scintillation counting.
Treatments are corrected for non-enzymatic hydrolysis by subtracting the dpms in treatments containing no enzyme. Mean [^3 H]-AA dpm is determined and a percent inhibition relative to vehicle treated samples is calculated.
The percent hydrolysis is calculated by the following equation: [formula]

As for `COC(=O)C1(C(=O)CCCCOc2ccc(Cl)cc2)CO1` (centres unmarked) [Example 6A, 2-[5-(4-Chlorophenoxy)-1-oxopentyl]-2-oxiranecarboxylic acid methyl ester], at 10 µM the inhibition in test [1] was 11%. For the same molecule, the “Mouse Ear Edema Assay, % Change from Control, TOPICAL, TPA” value in test [2] is -42%. Moreover, in test [3], the “% Inhibition (oxazolone contact hypersensitivity)” value came out at 34.3%. Further, at 50 µM the inhibition on human platelet PLA2 (at 50 μM, pH 7.4, 37° C.) was 83.2%. The IC50 at human platelet PLA2 (cell free human platelet PLA2, pH 7.4, 37° C., read-out: IC50 (PLA2)) is 10.7 µM.

(Values after patent US4788304A, “Phospholipase A2 inhibitors” (American Home Products Corporation, priority 1987, dated 1988).)
